In patent publication US4880825A, “Mitomycin derivatives” (Kyowa Hakko Kogyo Kabushiki Kaisha, priority 1987, dated 1989):
Values after ≈ are worked out from the molar mass of the structure shown.

Columns and labels:
[1] = system: Klebsiella pneumoniae ATCC 10031; test: Anti-bacterial activity, minimum inhibitory concentration by agar dilution method at pH 7.0 (KP); format: cell-based; settings: ATCC10031
Excerpt: (§1) In this table, the microorganisms are abbreviated as follows:
KP: Klebsiella pneumoniae ATCC 10031.

Leukemia P-388 = test: Effects upon Leukemia P-388 (survival of CDF1 mice implanted with P-388 cells); format: in vivo, mouse (CDF1); settings: abdominally once; for ILS(%) (Increased Life Span): 24 h after implantation, CDF1 mice, 33 days, ratio to untreated control survival; for ILS* (ratio of ILS % of test compound to ILS % of mitomycin C): relative to mitomycin C as control under the same conditions
Protocol: P-388 ascites tumour was abdominally implanted into a mouse (DBA/2). 7 days after this, ascitic fluid was collected from the tumour-carrying mouse. The number of P-388 cells was counted to prepare a cell suspension containing 5×10^6 cells/ml using a sterilized physiological saline solution. 0.2 ml of the cell suspension containing 1×10^6cells was abdominally implanted into each mouse of CDF1 strain (body weight 20-25 g). […] The effect of the test compound was evaluated with reference to the ILS % (Increased Life Span) (the ratio of the average survival days of the test animals to the average survival days of the control group of untreated animals). The following Table 5 indicates ILS* (the ratio of ILS % obtained using each of the test compounds to the corresponding ILS % obtained using mitomycin C as control under the same conditions).

[2] = system: Proteus vulgaris ATCC 6897; test: Anti-bacterial activity, minimum inhibitory concentration by agar dilution method at pH 7.0 (PV); format: cell-based; settings: ATCC6897
Excerpt: as §1
PV: Proteus vulgaris ATCC 6897

[3] = system: Streptococcus faecalis ATCC 10541; test: Anti-bacterial activity, minimum inhibitory concentration by agar dilution method at pH 7.0 (SF); format: cell-based; settings: Enterococcus faecalis, ATCC10541
Excerpt: as §1
SF: Streptococcus faecalis ATCC 10541

[4] = Acute toxicity (LD50, Behrens-Koerber method); settings: mouse, in vivo, ip; ddy mice, abdominally administered once, 14 days observation
Protocol: From the death ratio of each test group of animals, acute toxicity (LD50) was calculated by the "Behrens-Koerber" method.

[5] = system: Staphylococcus aureus ATCC 6538P; test: Anti-bacterial activity, minimum inhibitory concentration by agar dilution method at pH 7.0 (SA); format: cell-based; settings: ATCC6538P
Excerpt: as §1
SA: Staphylococcus aureus ATCC 6538P

## CO[C@@]12[C@H](COC(N)=O)C3=C(C(=O)C(C)(Cl)C4(OCCO4)C3=O)N1C[C@@H]1N[C@@H]12 (stereo partly shown) [Compound 8, 6-chloro-7-demethoxy-6,7-dihydro-7-ethylenedioxymitomycin A]
[1]
  MIC: 0.039 µg/mL (≈ 0.0942 µM)
Leukemia P-388; dose 1.56 mg/kg
  ILS(%) (Increased Life Span): > 164%
  ILS* (ratio of ILS % of test compound to ILS % of mitomycin C): > 0.93
[2]
  MIC: 1.3 µg/mL (≈ 3.14 µM)
[3]
  MIC: 1.3 µg/mL (≈ 3.14 µM)
[4]
  LD50 at 336 h: 3.75 mg/kg
[5]
  MIC: 0.039 µg/mL (≈ 0.0942 µM)

## CC1C(=O)C2=C(C(=O)C13OCCO3)[C@H](COC(N)=O)[C@@]1(O)[C@@H]3[C@H](CN21)N3C (stereo partly shown) [Compound 2, 7-demethoxy-6,7-dihydro-7-ethylenedioxymitomycin B]
[1]
  MIC: 1.3 µg/mL (≈ 3.43 µM)
Leukemia P-388; dose 5 mg/kg
  ILS(%) (Increased Life Span): 173%
  ILS* (ratio of ILS % of test compound to ILS % of mitomycin C): 1.06
[2]
  MIC: 0.63 µg/mL (≈ 1.66 µM)
[3]
  MIC: 2.6 µg/mL (≈ 6.85 µM)
[4]
  LD50 at 336 h: 7.5 mg/kg
[5]
  MIC: 2.5 µg/mL (≈ 6.59 µM)

## CO[C@@]12[C@H](COC(N)=O)C3=C(C(=O)C(C)(Br)C4(OCCO4)C3=O)N1C[C@H]1[C@@H]2N1C (stereo partly shown) [Compound 10, 6-bromo-7-demethoxy-6,7-dihydro-7-ethylenedioxymitomycin F]
[1]
  MIC: 5 µg/mL (≈ 10.6 µM)
[2]
  MIC: 5 µg/mL (≈ 10.6 µM)
[3]
  MIC: 2.5 µg/mL (≈ 5.29 µM)
[5]
  MIC: 0.63 µg/mL (≈ 1.33 µM)

## CO[C@]12[C@@H]3[C@H](CN1C1=C(C(=O)C4(OCCO4)C(C)C1=O)[C@@H]2COC(N)=O)N3C (stereo partly shown) [Compound 4, 7-demethoxy-6,7-dihydro-7-ethylenedioxymitomycin J]
[1]
  MIC: 0.31 µg/mL (≈ 0.788 µM)
Leukemia P-388; dose 5 mg/kg
  ILS(%) (Increased Life Span): 180%
  ILS* (ratio of ILS % of test compound to ILS % of mitomycin C): 1.16
[2]
  MIC: 0.63 µg/mL (≈ 1.6 µM)
[3]
  MIC: 0.31 µg/mL (≈ 0.788 µM)
[4]
  LD50 at 336 h: 6 mg/kg
[5]
  MIC: 0.63 µg/mL (≈ 1.6 µM)

## CO[C@@]12[C@H](COC(N)=O)C3=C(C(=O)C(C)C4(OCCO4)C3=O)N1C[C@@H]1N[C@@H]12 (stereo partly shown) [Compound 1, 7-demethoxy-6,7-dihydro-7-ethylenedioxymitomycin A]
[1]
  MIC: 0.0049 µg/mL (≈ 0.0129 µM)
Leukemia P-388; dose 0.39 mg/kg
  ILS(%) (Increased Life Span): 169%
  ILS* (ratio of ILS % of test compound to ILS % of mitomycin C): 1.00
[2]
  MIC: 0.0098 µg/mL (≈ 0.0258 µM)
[3]
  MIC: 0.078 µg/mL (≈ 0.206 µM)
[4]
  LD50 at 336 h: 0.7 mg/kg
[5]
  MIC: 0.039 µg/mL (≈ 0.103 µM)

## CO[C@@]12[C@H](COC(N)=O)C3=C(C(=O)C(C)C4(OCCO4)C3=O)N1C[C@H]1[C@@H]2N1C (stereo partly shown) [Compound 3, 7-demethoxy-6,7-dihydro-7-ethylenedioxymitomycin F]
[1]
  MIC: 0.31 µg/mL (≈ 0.788 µM)
Leukemia P-388; dose 2.5 mg/kg
  ILS(%) (Increased Life Span): 153%
  ILS* (ratio of ILS % of test compound to ILS % of mitomycin C): 0.77
[2]
  MIC: 0.63 µg/mL (≈ 1.6 µM)
[3]
  MIC: 0.31 µg/mL (≈ 0.788 µM)
[4]
  LD50 at 336 h: 4.5 mg/kg
[5]
  MIC: 0.31 µg/mL (≈ 0.788 µM)

## CN1[C@H]2[C@@H]1CN1C3=C(C(=O)C4(OCCO4)C(C)(Cl)C3=O)[C@H](COC(N)=O)[C@@]21O (stereo partly shown) [Compound 9, 6-chloro-7-demethoxy-6,7-dihydro-7-ethylenedioxymitomycin B]
[1]
  MIC: 5 µg/mL (≈ 12.1 µM)
Leukemia P-388; dose 12.5 mg/kg
  ILS(%) (Increased Life Span): 159%
  ILS* (ratio of ILS % of test compound to ILS % of mitomycin C): 1.13
[2]
  MIC: > 40 µg/mL
[3]
  MIC: 10 µg/mL (≈ 24.2 µM)
[4]
  LD50 at 336 h: 15 mg/kg
[5]
  MIC: > 40 µg/mL
